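Test compounds were applied to cells in 96-well plates for 48 hours at 5 doses. Abbreviation: GI50, concentration required for 50% inhibition of growth. TGI: concentration producing complete growth inhibition.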
Tests used:
Test in all cases: inhibition of tumour cell growth, NCI panel, 48 h
RPMI-8226 leukemia = tested on: RPMI-8226 leukemia
MOLT-4 leukemia = tested on: MOLT-4 leukemia
HCT-15 colon = tested on: HCT-15 colon
SF-295 CNS = tested on: SF-295 CNS
NCI/ADR-RES ovarian = tested on: NCI/ADR-RES ovarian
SF-268 CNS = tested on: SF-268 CNS
TK-10 renal = tested on: TK-10 renal
HCC-2998 colon = tested on: HCC-2998 colon
OVCAR-4 ovarian = tested on: OVCAR-4 ovarian
SK-MEL-5 melanoma = tested on: SK-MEL-5 melanoma

| SMILES | GI50 (RPMI-8226 leukemia) | TGI (RPMI-8226 leukemia) | GI50 (MOLT-4 leukemia) | TGI (MOLT-4 leukemia) | GI50 (HCT-15 colon) | TGI (HCT-15 colon) | GI50 (SF-295 CNS) | TGI (SF-295 CNS) | TGI (NCI/ADR-RES ovarian) | GI50 (SF-268 CNS) | TGI (SF-268 CNS) | GI50 (TK-10 renal) | TGI (TK-10 renal) | GI50 (HCC-2998 colon) | TGI (HCC-2998 colon) | GI50 (OVCAR-4 ovarian) | TGI (OVCAR-4 ovarian) | GI50 (SK-MEL-5 melanoma) | TGI (SK-MEL-5 melanoma) | GI50 (NCI/ADR-RES ovarian) |
| --- | --- | --- | --- | --- | --- | --- | --- | --- | --- | --- | --- | --- | --- | --- | --- | --- | --- | --- | --- | --- |
| Oc1cn(-c2ccc(Cl)cc2)nc1-c1n[nH]c(=S)n1C1CCCCC1 | 0.248 µM | 30.9 µM | 0.5 µM | > 29 µM | 0.31 µM | > 100 µM | < 0.0447 µM | 0.479 µM | 1.05 µM | 13.7 µM | > 100 µM | 0.807 µM | 34.1 µM | 2.33 µM | 14.3 µM | 31.8 µM | > 100 µM | 0.25 µM | 12.3 µM |  |
| NC(N)=NCCCCCNc1noc(Cc2c[nH]c3cc(Br)ccc23)n1 | 6.78 µM | 47.1 µM | 8.12 µM | 36.3 µM | 60.5 µM | > 100 µM | 17.8 µM | 56.6 µM | > 100 µM | 3.54 µM | 27.8 µM | 49.4 µM | > 100 µM | 6.12 µM | 23.2 µM | 12.2 µM | 91.8 µM | 4.52 µM | 16.2 µM | 40.4 µM |
| C[C@]12CC[C@@H]3c4ccc(O)cc4CC[C@H]3[C@@H]1CC[C@@H]2NS(=O)(=O)c1cccc(F)c1 | 3.65 µM | 19.6 µM | 2.5 µM | 9.59 µM | 2.8 µM | 11.3 µM | 3.29 µM | 11.9 µM | 17 µM | 4.1 µM | 16 µM | 4.14 µM | 13.8 µM | 5.27 µM | 16.9 µM | 2.72 µM | 14.4 µM | 1.66 µM | 3.15 µM | 2.88 µM |
| CCCCC1(CN2CCOCC2)S/C(=N/c2nc(CC(=O)OCC)cs2)NC1=O (centres undefined) | 25.6 µM | 80.6 µM | 27.7 µM | > 100 µM | 40 µM | > 100 µM | 35.3 µM | > 100 µM | > 100 µM | 37.6 µM | > 100 µM | 31.7 µM | 99.1 µM | 35.9 µM | > 100 µM | 33 µM | > 100 µM | 24.2 µM | 75.2 µM | 40.1 µM |
| CCOC(=O)c1c[nH]c2oc(/C=N/N3CC(CN4CCOCC4)OC3=O)cc2c1=O (centres undefined) |  | > 100 µM |  | > 100 µM |  | > 100 µM |  | > 100 µM | > 100 µM |  | > 100 µM |  | > 100 µM |  | > 100 µM |  | > 100 µM |  | > 100 µM |  |
| O=[N+]([O-])c1ccc2c(c1)C(c1ccccc1Cl)=Nc1cn[nH]c1N2 | > 24.2 µM | > 25 µM | 10.5 µM | > 25 µM | 15.3 µM | > 25 µM | 8.48 µM | > 23.8 µM | > 25 µM | > 23.9 µM | > 25 µM | 15.5 µM | > 25 µM | 24.7 µM | > 25 µM | 12.5 µM | > 25 µM | 11.3 µM | > 25 µM | 23.1 µM |
| Cc1c(C2=C(Br)C(=O)N(C)C2=O)c(=O)n(C)c(=O)n1C |  | 46.3 µM |  | 55.1 µM |  | 45.2 µM |  | > 100 µM | 74.1 µM |  | > 100 µM |  | 31.8 µM |  | 53.3 µM |  | > 100 µM |  | 52.1 µM |  |
| COc1ccc2c(c1)C(C)Cc1c(ncnc1-n1c(C)nc3ccccc31)N2C (centres undefined) | 3.96 µM | 24.3 µM | 2.39 µM | 12.5 µM | 1.83 µM | 16.9 µM | 1.79 µM | 7.85 µM | 19.3 µM | 11.5 µM | 39.7 µM | 7.28 µM | 45.9 µM | 4.09 µM | 16.4 µM | 6.24 µM | 61.8 µM | 3.42 µM | 13 µM | 2 µM |
| Cn1cc(C2=C(c3cn(CCCCCN)c4ccccc34)C(=O)NC2=O)c2ccccc21 | 9.24 µM | > 25 µM | 8.09 µM | > 22.9 µM | 7.01 µM | > 25 µM | 9.37 µM | > 20.1 µM | > 25 µM | 12.5 µM | > 25 µM | 10.6 µM | > 25 µM | > 25 µM | > 25 µM | 12.7 µM | > 25 µM | 7.46 µM | > 19.7 µM | 12.8 µM |
| COc1cc2ncn(-c3cc(OCCc4ccccc4)c(C(N)=O)s3)c2cc1OC | > 25 µM | > 25 µM | 12.4 µM | > 25 µM | > 25 µM | > 25 µM | > 25 µM | > 25 µM | > 25 µM | > 25 µM | > 25 µM | > 17.2 µM | > 25 µM | > 25 µM | > 25 µM | > 25 µM | > 25 µM | 11.3 µM | > 25 µM | 14.8 µM |

Reference: PubChem BioAssay (NCI)
